Results on 6 molecules are retold here after patent publication US5618836A, “[4-(1,2-epoxycyclohexanyl)but-3-en-1-ynyl]aromatic and heteroaromatic acids and derivatives having retinoid-like biological activity” (Allergan, priority 1995, dated 1997).

Structures are written as SMILES.

Usually IC80 stands for the concentration needed for an effect of 80%. Low values mean greater potency, high ones weaker potency.

The subject of test [1] is ornithine decarboxylase (ODC). In words: Inhibition of TPA induction of ornithine decarboxylase (ODC) activity. The test is classed as in vivo. The conditions noted are these: inhibition of TPA-induced ODC; assay essentially per Cancer Res: 1662-1670, 1975. The text has this: The retinoid-like activity of these compounds is confirmed through the classic measure of retinoic acid activity involving the effects of retinoic acid on ornithine decarboxylase. The original work on the correlation between retinoic acid and decrease in cell proliferation was done by Verma & Boutwell, Cancer Research, 1977, 37,2196-2201. That reference discloses that ornithine decarboxylase (ODC) activity increased precedent to polyamine biosynthesis. It has been established elsewhere that increases in polyamine synthesis can be correlated or associated with cellular proliferation. Thus, if ODC activity could be inhibited, cell hyperproliferation could be modulated. Although all causes for ODC activity increases are unknown, it is known that 12-O-tetradecanoylphorbol-13-acetate (TPA) induces ODC activity.

Test [2] concerns ornithine decarboxylase (ODC). To be noted: in words; background statement; cited from earlier work.

In test [1], `CC1(C)CCCC2(C)OC12/C=C/C#Cc1ccc(C(=O)O)cn1` (racemic) [Compound 4, (±)-6-[(3E)-4-(1,2-Epoxy-2,6,6-trimethylcyclohexan-yl)but-3-en-1-ynyl)]nicotinic acid] came in with an IC80 of 21 nM. Turning to `CCOC(=O)c1ccc(C#C/C=C/C23OC2(C)CCCC3(C)C)nc1` (racemic) [Compound 5, Ethyl (±)-6-[(3E)-4-(1,2-Epoxy-2,6,6-trimethylcyclohexanyl)but-3-en-1-ynyl)nicotinate], the 80% effect level in test [1] (IC80) was put at 1.07 nM. Same read-out and setting: in the case of `CCOC(=O)c1ccc(C#C/C=C/C23OC2(C)CCCC3(C)C)s1` (racemic) [Compound 6, Ethyl(±)-5-[(3E)-4-(1,2-Epoxy-2,6,6-trimethylcyclohexanyl)but-3-en-1-ynyl)]-2thiophenecarboxylate] it was 16 nM. The same measure, in the same setting: the result for `CC1(C)CCCC2(C)OC12/C=C/C#Cc1ccc(C(=O)O)cc1` (racemic) [Compound 1, (±)-4-[(3E)-4-(1,2-Epoxy-2,6,6-trimethylcyclohexan-yl)but-3-en-1-ynyl)]benzoic acid] reads 4.8 nM. The same measure, in the same setting: in the case of `CC1(C)CCCC2(C)OC12/C=C/C#Cc1ccc(C(=O)O)s1` (racemic) [Compound 3, (±)-5-[(3E)-4-(1,2-Epoxy-2,6,6-trimethylcyclohexan-yl)but-3-en-1-ynyl)]-2-thiophenecarboxylic acid] it was 22.3 nM.

With `CC1=C(/C=C/C(C)=C/C=C/C(C)=C/C(=O)O)C(C)(C)CCC1` [Retinoic acid], the “inhibition of induction of ODC activity by TPA” value in test [2] is on record as “inhibits this induction of ODC activity by TPA”.
